Read-outs that look alike come from different tables or passages of the source.
Columns and labels:
[1] = system: Salmonella strains (TA98, TA100, TA1537, and TA1535); details: ± rat liver S9, 4 strains; 9 valid up to 50 μM
Procedure: Compounds were assessed for mutagenicity at the Eurofins Panlabs in 384-well plates using four Salmonella strains: TA98, to probe for frameshift mutation (with quercetin as control), TA100 and TA1535, to probe for base pair insertions/deletions (with streptozotocin as control), and TA1537, to probe for frameshift mutations (with aminacridine as control) as previously described.[78] Each compound was incubated at 37 °C for 96 h at four different concentrations (5, 10, 50, and 100 μM), with each concentration tested using 48 replicates, both with and without rat liver S9 metabolic activation. A concurrent bacterial cytotoxicity assay was run at 0.6, 1.2, 2.5, 5, 10, 25, 50, and 100 μM to rule out false negatives. Bacterial cytotoxicity was expressed as percent of control growth (OD650). Compounds with growth of less than 60% control were flagged and considered bacterial cytotoxic. […] Significances of the positive counts between the treatment and control were determined using a one-tailed Fisher’s exact test.

[2] = Brain tissue binding by equilibrium dialysis; format: in vitro ADME, mouse
Procedure: Plasma protein binding and brain tissue binding were determined by Pharmaron, Inc. using the equilibrium dialysis method. […] Following incubation, the samples were analyzed by LC-MS/MS and the concentrations of the compounds were determined in the buffer and plasma solution chambers.

[3] = system: luciferase-tagged HCC827 cells implanted into the brains; test: Intracranial PDX model; format: in vivo, BALB/c nude mice; details: 10 mg/kg PO b.i.d.
Procedure: Animal experiments were performed at Pharmaron, Inc. and animal use was approved by Pharmaron’s Institutional Animal Care and Use Committee (IACUC) in Pharmaron (Pharmaron IACUC, Protocol #PK-M-07182022, #PK-R-06012022, and #ON-CELL-XEN-06012022) following the guidance of AAALAC. Six- to eight-week-old male Sprague-Dawley rats (approximately 200–300 g) obtained from Si Bei Fu Laboratory Animal Technology Co., six- to eight-week-old male CD1 mice (approximately 20–30 g) obtained from Si Bei Fu Laboratory Animal Technology Co., and six- to eight-week-old female BALB/c nude mice (approximately 20–30 g) obtained from Si Bei Fu Laboratory Animal Technology Co., were used in the pharmacokinetic studies. Six- to eight-week-old female BALB/c nude mice (approximately 18–22 g) obtained from Beijing Anikeeper Biotech Co., Ltd. were used in the intracranial PDX study. Animals were housed at 20–25 °C with humidity ranging from 40 to 70% relative humidity, were exposed to 12 h light and dark cycles, and were supplied with food and water ab libitum.
HCC827 cells stably expressing luciferase (HCC827-luc) were injected intracranially. Briefly, 3 × 10^5 HCC827-luc tumor cells suspended in 2 μL of RPMI1640 medium were injected into the right forebrain of anesthetized mice (anesthetic: intramuscular injection of ZoletlTM 50 (Virbac S.A)). Mice were imaged biweekly using IVIS Lumina III (PerkinElmer). Images were acquired 10 min post intraperitoneal (IP) injection with 15 mg/mL (at 5 μL/g body weight) of D-luciferin in anesthetized mice (anesthetic: 1–2% isoflurane inhalation). On day 20 postcellular inoculation, mice were randomized into 2 treatment groups (n = 10 mice per group): (1) 1% methylcellulose as vehicle control and (2) 9 (10 mg/kg) (formulation: 1% methylcellulose), PO, b.i.d. (twice daily) dosing (12 h intervals) × 7 days for 21 days. Body weights of all mice were measured biweekly throughout the study and BW change, expressed in % was calculated using the following formula: [drawing 5] where BWDay X is the BW on a given day and BWDay 0 is BW on day 0 (initiation of treatment).

ACVR1 = target: T1, ACVR1 (Homo sapiens, UniProt Q04771); test: KINOMEScan; format: binding; details: ACVR1, 1 µM; read-out: Percent Control
T1 construct: purchased Eurofins DiscoverX
Text: (§1) Percent control was mapped onto the kinome tree using TREEspot.

CYP2C19 = target: T2, CYP2C19 (Homo sapiens, UniProt P33261); test: CYP450 inhibition in human liver microsomes; format: in vitro ADME
T2 construct: tissue BD Gentest; host or cells: pooled human liver microsomes
Procedure: (§2) The activities tested were CYP1A2-mediated phenacetin O-demethylation, CYP2C19-mediated (S)-mephenyotin 4′-hydroxylation, CYP2C9-mediated diclofenac 4′-hydroxylation, CYP2D6-mediated dextromethorphan O-demethylation, and CYP3A4-mediated midazolam 1′-hydroxylation. […] The reactions were initiated by adding NADPH (1 mM final concentration) after a 5 min preincubation, and the assay was run in duplicate (n = 2). Samples were analyzed by ultra-performance liquid chromatography tandem mass spectrometry (UPLC-MS/MS).

BRAF(V600E) = target: T3, BRAF(V600E) (Homo sapiens, UniProt P15056, V600E); test: KINOMEScan; format: binding; details: read-out: Percent Control
T3 construct: purchased Eurofins DiscoverX (KINOMEscan)
Text: as §1

ASK1 = target: T4, ASK1 (Homo sapiens, UniProt Q99683); test: KINOMEScan; format: binding; details: ASK1, 1 µM; read-out: Percent Control
T4 construct: purchased Eurofins DiscoverX (KINOMEscan)

ADCK3 = target: T5, ADCK3 (Homo sapiens, UniProt Q8NI60); test: KINOMEScan; format: binding; details: ADCK3, 1 µM; read-out: Percent Control
T5 construct: purchased Eurofins DiscoverX (KINOMEscan)
Text: as §1

[4] = target: T6, ABL1(M351T)-phosphorylated (Homo sapiens, UniProt P00519, M351T); test: KINOMEScan; format: binding; details: read-out: Percent Control
T6 construct: purchased Eurofins DiscoverX
Text: as §1

CYP2D6 = CYP2D6 (Homo sapiens, UniProt P10635); test: CYP2D6 time-dependent inhibition in primary human hepatocytes; details: for Inhibition percentage(%) at Top conc.: human hepatocytes; for IC50 at 5 min: human, primary human hepatocytes, probe dextromethorphan (40 μM), O-demethylation
YANK1 = target: T7, YANK1 (Homo sapiens, UniProt Q8WU08); test: KINOMEScan; format: binding; details: YANK1, 1 µM; read-out: Percent Control
T7 construct: purchased Eurofins DiscoverX (KINOMEScan service)
Text: as §1

AMPK-alpha1 = target: T8, AMPK-alpha1 (Homo sapiens, UniProt Q13131); test: KINOMEScan; format: binding; details: AMPK-alpha1, 1 µM; read-out: Percent Control
T8 construct: purchased Eurofins DiscoverX (KINOMEscan)
Text: as §1

BIKE = target: T9, BIKE (Homo sapiens, UniProt Q9NSY1); test: KINOMEScan; format: binding; details: read-out: Percent Control
T9 construct: purchased Eurofins DiscoverX (KINOMEscan)
Text: as §1

WNK3 = target: T10, WNK3 (Homo sapiens, UniProt Q9BYP7); test: KINOMEScan; format: binding; details: WNK3, 1 µM; read-out: Percent Control
T10 construct: purchased Eurofins DiscoverX
Text: as §1

BMX = target: T11, BMX (Homo sapiens, UniProt P51813); test: KINOMEScan; format: binding; details: read-out: Percent Control
T11 construct: purchased Eurofins DiscoverX (KINOMEscan)
Text: as §1

BMPR1B = target: T12, BMPR1B (Homo sapiens, UniProt O00238); test: KINOMEScan; format: binding; details: read-out: Percent Control
T12 construct: purchased Eurofins DiscoverX (KINOMEscan)
Text: as §1

CYP1A2 = target: T13, CYP1A2 (Homo sapiens, UniProt P05177); test: CYP450 inhibition in human liver microsomes; format: in vitro ADME
T13 construct: tissue BD Gentest; host or cells: pooled human liver microsomes
Procedure: as §2

[5] = CD-1, mouse, mouse brain homogenate
[6] = CYP2D6 IC50, human hepatocytes, pre-incubation 30 min

Sequence of CYP2D6 (P10635 whole entry): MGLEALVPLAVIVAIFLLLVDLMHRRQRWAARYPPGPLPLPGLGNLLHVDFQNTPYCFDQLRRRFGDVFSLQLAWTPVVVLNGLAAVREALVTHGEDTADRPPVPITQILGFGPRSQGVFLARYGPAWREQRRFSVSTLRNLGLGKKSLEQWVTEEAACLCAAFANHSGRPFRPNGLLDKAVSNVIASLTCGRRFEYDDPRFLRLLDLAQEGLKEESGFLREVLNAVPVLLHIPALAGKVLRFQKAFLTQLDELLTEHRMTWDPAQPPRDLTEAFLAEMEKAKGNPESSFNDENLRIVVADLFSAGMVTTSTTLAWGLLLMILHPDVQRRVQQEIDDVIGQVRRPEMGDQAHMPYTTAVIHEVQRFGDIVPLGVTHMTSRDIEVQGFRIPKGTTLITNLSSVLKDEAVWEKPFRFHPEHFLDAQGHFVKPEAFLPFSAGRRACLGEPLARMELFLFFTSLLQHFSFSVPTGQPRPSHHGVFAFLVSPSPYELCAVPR
T13 sequence (P05177 whole entry): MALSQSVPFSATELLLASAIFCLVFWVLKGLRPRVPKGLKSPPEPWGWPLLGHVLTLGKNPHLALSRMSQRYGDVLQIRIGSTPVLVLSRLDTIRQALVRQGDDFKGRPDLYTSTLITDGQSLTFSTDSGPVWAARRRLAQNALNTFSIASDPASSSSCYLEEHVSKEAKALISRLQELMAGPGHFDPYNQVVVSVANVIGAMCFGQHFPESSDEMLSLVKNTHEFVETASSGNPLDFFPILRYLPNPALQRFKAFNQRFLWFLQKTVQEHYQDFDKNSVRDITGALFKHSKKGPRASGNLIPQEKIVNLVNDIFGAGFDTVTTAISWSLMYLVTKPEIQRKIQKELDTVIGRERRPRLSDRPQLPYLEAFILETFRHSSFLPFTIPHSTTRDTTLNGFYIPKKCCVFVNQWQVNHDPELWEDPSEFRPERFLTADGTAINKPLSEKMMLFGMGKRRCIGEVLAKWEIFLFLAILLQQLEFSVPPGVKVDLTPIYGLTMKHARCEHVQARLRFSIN
T7 sequence (Q8WU08 whole entry): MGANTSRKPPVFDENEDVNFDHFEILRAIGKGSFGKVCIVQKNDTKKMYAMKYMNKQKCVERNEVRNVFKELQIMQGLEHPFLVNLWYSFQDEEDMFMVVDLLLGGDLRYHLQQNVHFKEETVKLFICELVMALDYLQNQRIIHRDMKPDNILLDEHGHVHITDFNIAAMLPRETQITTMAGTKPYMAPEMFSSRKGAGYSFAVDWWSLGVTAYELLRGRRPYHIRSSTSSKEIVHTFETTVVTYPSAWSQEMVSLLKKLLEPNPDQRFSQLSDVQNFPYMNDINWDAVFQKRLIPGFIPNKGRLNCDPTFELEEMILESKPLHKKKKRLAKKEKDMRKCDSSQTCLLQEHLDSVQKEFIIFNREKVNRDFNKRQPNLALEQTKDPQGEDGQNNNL
T11 sequence (P51813 whole entry): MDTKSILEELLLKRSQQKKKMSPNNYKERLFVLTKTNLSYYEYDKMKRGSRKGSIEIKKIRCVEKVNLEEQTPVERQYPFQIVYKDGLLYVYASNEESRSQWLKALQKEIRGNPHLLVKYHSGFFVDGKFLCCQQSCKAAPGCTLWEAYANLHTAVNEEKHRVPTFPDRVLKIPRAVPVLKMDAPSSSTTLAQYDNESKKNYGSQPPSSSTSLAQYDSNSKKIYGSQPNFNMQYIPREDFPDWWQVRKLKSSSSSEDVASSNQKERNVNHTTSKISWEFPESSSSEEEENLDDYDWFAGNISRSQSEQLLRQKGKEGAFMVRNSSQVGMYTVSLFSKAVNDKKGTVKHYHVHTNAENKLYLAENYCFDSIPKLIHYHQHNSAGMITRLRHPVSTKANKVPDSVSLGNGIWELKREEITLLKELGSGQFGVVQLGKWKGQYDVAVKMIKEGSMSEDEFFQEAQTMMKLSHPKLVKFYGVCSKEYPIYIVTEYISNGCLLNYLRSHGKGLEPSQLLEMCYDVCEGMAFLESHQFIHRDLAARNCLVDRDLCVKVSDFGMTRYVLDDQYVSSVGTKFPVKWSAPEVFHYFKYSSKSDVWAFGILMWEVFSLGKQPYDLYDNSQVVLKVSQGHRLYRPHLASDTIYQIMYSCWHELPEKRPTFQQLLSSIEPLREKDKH
T3 sequence (P15056 whole entry V600E): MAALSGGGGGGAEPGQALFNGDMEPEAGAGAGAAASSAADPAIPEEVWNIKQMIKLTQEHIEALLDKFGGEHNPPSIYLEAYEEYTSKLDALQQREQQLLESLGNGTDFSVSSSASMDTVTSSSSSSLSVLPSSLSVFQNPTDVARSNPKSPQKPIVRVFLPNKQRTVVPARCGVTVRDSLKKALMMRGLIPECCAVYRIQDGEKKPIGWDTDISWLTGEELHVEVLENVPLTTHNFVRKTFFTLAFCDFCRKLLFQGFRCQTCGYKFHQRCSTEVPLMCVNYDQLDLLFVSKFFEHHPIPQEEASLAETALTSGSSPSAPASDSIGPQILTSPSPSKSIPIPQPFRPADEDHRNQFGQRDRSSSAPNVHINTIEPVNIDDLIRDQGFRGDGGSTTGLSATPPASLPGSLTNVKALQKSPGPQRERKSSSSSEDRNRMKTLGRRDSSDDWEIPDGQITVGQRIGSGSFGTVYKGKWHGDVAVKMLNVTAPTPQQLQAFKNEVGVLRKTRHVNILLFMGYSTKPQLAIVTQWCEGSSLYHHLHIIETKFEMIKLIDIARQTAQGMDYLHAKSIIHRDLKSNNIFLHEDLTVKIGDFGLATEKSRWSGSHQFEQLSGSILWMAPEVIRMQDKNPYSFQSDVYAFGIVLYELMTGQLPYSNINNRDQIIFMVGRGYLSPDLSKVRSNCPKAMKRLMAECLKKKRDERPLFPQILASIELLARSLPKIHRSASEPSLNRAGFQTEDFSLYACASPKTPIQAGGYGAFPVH
T5 sequence (Q8NI60 163-647): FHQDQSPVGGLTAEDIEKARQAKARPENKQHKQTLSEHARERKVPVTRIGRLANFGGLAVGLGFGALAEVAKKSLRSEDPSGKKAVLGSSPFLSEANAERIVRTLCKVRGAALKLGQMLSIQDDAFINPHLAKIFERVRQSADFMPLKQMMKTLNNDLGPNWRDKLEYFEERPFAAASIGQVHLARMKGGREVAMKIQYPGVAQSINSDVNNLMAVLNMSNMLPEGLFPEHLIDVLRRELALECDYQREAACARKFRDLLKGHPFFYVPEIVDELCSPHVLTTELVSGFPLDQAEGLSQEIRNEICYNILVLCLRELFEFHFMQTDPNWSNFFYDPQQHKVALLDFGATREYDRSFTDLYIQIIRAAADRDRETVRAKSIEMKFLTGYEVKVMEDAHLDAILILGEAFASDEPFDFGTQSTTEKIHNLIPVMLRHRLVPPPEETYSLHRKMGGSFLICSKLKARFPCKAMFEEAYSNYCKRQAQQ
T8 sequence (Q13131 whole entry): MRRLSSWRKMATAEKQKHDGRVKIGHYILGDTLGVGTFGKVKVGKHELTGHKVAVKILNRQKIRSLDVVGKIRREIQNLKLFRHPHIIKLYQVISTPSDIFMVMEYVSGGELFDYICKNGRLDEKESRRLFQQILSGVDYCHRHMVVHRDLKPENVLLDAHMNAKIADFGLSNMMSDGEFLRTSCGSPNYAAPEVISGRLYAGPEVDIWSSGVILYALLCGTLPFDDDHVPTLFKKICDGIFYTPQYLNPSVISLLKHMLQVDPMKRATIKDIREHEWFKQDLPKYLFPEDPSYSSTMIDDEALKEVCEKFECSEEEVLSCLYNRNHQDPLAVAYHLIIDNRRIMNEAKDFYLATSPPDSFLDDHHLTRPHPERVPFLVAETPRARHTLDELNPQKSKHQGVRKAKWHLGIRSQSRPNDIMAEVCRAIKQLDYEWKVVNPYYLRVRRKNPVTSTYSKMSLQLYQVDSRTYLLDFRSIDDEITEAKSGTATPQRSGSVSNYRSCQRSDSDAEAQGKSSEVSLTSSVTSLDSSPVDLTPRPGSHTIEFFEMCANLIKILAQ
T12 sequence (O00238 14-502): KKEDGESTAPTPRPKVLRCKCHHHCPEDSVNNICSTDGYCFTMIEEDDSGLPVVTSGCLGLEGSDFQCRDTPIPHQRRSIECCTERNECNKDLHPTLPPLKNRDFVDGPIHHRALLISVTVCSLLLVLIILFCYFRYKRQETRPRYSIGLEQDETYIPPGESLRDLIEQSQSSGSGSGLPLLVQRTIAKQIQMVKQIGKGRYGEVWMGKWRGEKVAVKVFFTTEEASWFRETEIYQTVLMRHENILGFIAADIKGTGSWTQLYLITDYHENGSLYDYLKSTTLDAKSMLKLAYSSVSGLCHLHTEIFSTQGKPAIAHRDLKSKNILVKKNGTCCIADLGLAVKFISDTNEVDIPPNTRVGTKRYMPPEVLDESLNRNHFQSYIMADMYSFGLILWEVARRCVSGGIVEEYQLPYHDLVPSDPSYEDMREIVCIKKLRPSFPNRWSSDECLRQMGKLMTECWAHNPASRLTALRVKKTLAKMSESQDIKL
T1 sequence (Q04771 21-509): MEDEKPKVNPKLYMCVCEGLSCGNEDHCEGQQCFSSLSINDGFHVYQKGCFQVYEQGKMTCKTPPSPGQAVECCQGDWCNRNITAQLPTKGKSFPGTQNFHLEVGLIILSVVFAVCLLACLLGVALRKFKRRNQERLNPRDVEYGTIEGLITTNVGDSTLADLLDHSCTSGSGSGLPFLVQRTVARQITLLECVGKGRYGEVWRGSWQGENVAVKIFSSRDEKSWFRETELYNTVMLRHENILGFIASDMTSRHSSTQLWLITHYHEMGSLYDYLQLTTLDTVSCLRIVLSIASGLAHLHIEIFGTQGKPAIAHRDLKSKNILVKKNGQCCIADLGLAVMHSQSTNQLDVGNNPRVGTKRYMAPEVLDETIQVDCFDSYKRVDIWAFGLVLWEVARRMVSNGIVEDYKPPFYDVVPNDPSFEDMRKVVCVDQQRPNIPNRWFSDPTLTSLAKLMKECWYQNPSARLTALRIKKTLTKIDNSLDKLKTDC

COc1cc2ncnc(Nc3cccc(Cl)c3F)c2cc1OCCON1CCOCC1 [Compound 7, N-(3-Chloro-2-fluorophenyl)-7-methoxy-6-(2-(morpholinooxy)ethoxy)quinazolin-4-amine]
AMES [1]: Negative

COc1cc2ncnc(Nc3cccc(Cl)c3F)c2cc1OCCON1CCN(C)CC1 [Compound 9, N-(3-Chloro-2-fluorophenyl)-7-methoxy-6-(2-((4-methylpiperazin-1-yl)oxy)ethoxy)quinazolin-4-amine]
fraction unbound at 6 h, 5 μM ([2]; CD-1, mouse, brain homogenate, read-out: fu,brain% / %Unboundbrain): 0.0405 | recovery at 6 h, 5 μM [2, 5]: 93% | remaining at 6 h, 5 μM [2, 5]: 92.6% | fraction unbound at 6 h, 5 μM ([2]; CD-1, mouse, mouse brain homogenate, read-out: %Unboundbrain (converted)): 0.0405 | fraction unbound at 6 h, 5 µM ([2]; mouse, brain homogenate, read-out: fu,brain% / %Unboundbrain): 0.041 | mean body weight loss ([3]; 21-day treatment window): ≤ 10% | adverse clinical events ([3]; 21 days): no adverse clinical events were observed | intracranial tumor response relative to vehicle control (bioluminescence) ([3]; 21 days, P = 0.0059): profound tumor regression | remaining binding at 1 µM (ACVR1): 100% | IC50 (CYP2C19): > 30 µM | remaining binding at 1 µM (BRAF(V600E)): 82% | remaining binding at 1 µM (ASK1): 100% | remaining binding at 1 µM (ADCK3): 90% | remaining binding at 1 µM [4]: 12% | IC50 (CYP2D6; [6]): 4.75 µM | Inhibition percentage(%) at Top conc. (CYP2D6; 0 min): 63.41% | Inhibition percentage(%) at Top conc. (CYP2D6; 30 min): 66.54% | IC50 at 5 min (CYP2D6; CYP2D6 IC50, human hepatocytes, pre-incubation 0 min): 4.57 µM | IC50 at 5 min (CYP2D6; [6]): 4.73 µM | remaining binding at 1 µM (YANK1): 94% | remaining binding at 1 µM (AMPK-alpha1): 100% | remaining binding at 1 µM (BIKE): 99% | remaining binding at 1 µM (WNK3): 94% | remaining binding at 1 µM (BMX): 93% | remaining binding at 1 µM (BMPR1B): 79% | IC50 (CYP1A2): > 30 µM

Reference: PMC10683025, “Discovery of a Hydroxylamine-Based Brain-Penetrant EGFR Inhibitor for Metastatic Non-Small-Cell Lung Cancer” (Journal of Medicinal Chemistry, 2023)
